US7173060B2, “Oxime derivatives and their use as pharmaceutically active agents” (Hoffmann-La Roche Inc., priority 2003, dated 2007)

Test system: histone deacetylase (HDAC)
Test: cellular acetylation assay (histone acetylation ELISA in PC3 cells)
Assay type: cell-based
Conditions: PC3 human prostate carcinoma cells, compound 1 μM, 24 h incubation, ELISA with antibodies against acetylated histone H3 or H4
Method: Therein acetylation of histones is monitored in PC3 cells. High acetylation correlates with inhibition of histone deacetylase by compounds. Cell viability is monitored in parallel to estimate the cytotoxicity of compounds.
PC3 cells, a human prostate carcinoma cell line, are seeded as 1800 cells per well of a 384-well microtiterplate in RPMI 1640 (including 5% FCS, 2 mM glutamine and pen/strep). After 48 h at 37° C. pre-diluted compounds are added to a final concentration of 1 uM. Compounds are pre-diluted in dimethyl sulfoxide (DMSO) resulting in a final concentration of DMSO of 0.5% per well.
After 24 h incubation cell viability is determined by adding cell proliferation reagent WST-1 (Roche Molecular Biochemicals). Another 60 min later the optical density (OD) is measured (450 nm versus 690 nm).
After measurement the cell layer is prepared for the ELISA reaction. Medium is aspirated and cells are fixed in ethanol at −20° C. for 60 min. After washing with PBS/Tween the blocking solution (PBS/5% FCS/Tween) is added and the cell layer is washed again. Antibodies against acetylated histone H3 or H4 (rabbit polyklonal IgG, Upstate Biotechnologie) are added at a dilution of 1:200 for 60 min at 37° C. As a second antibody goat anti rabbit IgG (H+L) humanIgG adsorbed-HRP conjugate (Dako) is used (1:2000 diluted). Cells are washed 3 times and the peroxidase substrate ABTS is allowed to react for 30–60 min at 37° C. The OD is measured at 405 nm.
The percentage of acetylation is calculated after substraction of blank O.D.s: […]

Compound | cell acetylation (PC3, 1 μM) [% of control]
CC(=O)Nc1ccc(C(=O)Nc2ccccc2N)cc1 [4-acetylamino-N-(2-amino-phenyl)-benzamide, reference compound] | 152 % of control
Nc1ccccc1NC(=O)c1ccc(CON=Cc2ccccc2)s1 [4–6, 5-Benzylideneaminooxymethyl-thiophene-2-carboxylic acid (2-amino-phenyl)-amide] | 180 % of control
Nc1ccccc1NC(=O)c1ccc(CON=C2Cc3ccccc3C2)s1 [4–7, 5-(Indan-2-ylideneaminooxymethyl)-thiophene-2-carboxylic acid (2-amino-phenyl)-amide] | 182 % of control
COc1ccc(C(C)=NOCc2ccc(C(=O)Nc3ccccc3N)s2)cc1OC [4–9, 5-[1-(3,4-Dimethoxy-phenyl)-ethylideneaminooxymethyl]-thiophene-2-carboxylic acid (2-amino-phenyl)-amide] | 158 % of control
COc1ccc(C=NOCc2ccc(C(=O)Nc3ccccc3N)s2)cc1OC [4–12, 5-(3,4-Dimethoxy-benzylideneaminooxymethyl)-thiophene-2-carboxylic acid (2-amino-phenyl)-amide] | 137 % of control
Nc1ccccc1NC(=O)c1ccc(CON=Cc2ccc(OC(F)(F)F)cc2)s1 [4–17, 5-(4-Trifluoromethoxy-benzylideneaminooxymethyl)-thiophene-2-carboxylic acid (2-amino-phenyl)-amide] | 127 % of control
Nc1ccccc1NC(=O)c1ccc(CON=Cc2cccnc2)s1 [4–21, 5-(Pyridin-3-ylmethyleneaminooxymethyl)-thiophene-2-carboxylic acid (2-amino-phenyl)-amide] | 135 % of control
Nc1ccccc1NC(=O)c1ccc(CON=Cc2ccc3c(c2)OCCO3)s1 [Example 3, 5-(2,3-Dihydro-benzo[1,4]dioxin-6-ylmethyleneaminooxymethyl)-thiophene-2-carboxylic acid (2-amino-phenyl)-amide] | 116 % of control
